Assay results taken from PubChem BioAssay AID242 (DTP/NCI, 2004).
Where “and” joins values, the source holds several entries; their conditions need not be identical. Equal values may be shown once. Inconclusive results and toxic doses are left out.

Tested on: BDF1 mice, Lymphoma 8 ip, survival T/C
Test: NCI In Vivo Anticancer Drug Screen. Data for tumor model Lymphoma 8 (intraperitoneal) in B6D2F1 (BDF1) mice
Conditions: endpoint: survival time, mean or median, higher = longer survival
Procedure: The antitumor activity of compounds was measured in mice bearing transplantable tumors. Survival or tumor size were measured and the results are expressed as the measurement made in the treated group (T) divided by the measurement made in the vehicle treated control group (C). The tumor model used in this assay is Lymphoma 8 (intraperitoneal) in B6D2F1 (BDF1) mice

[1] = dose: 4.0 mg/kg/injection, schedule: Q01DX010 (ip), vehicle: saline
[2] = dose: 8.0 mg/kg/injection, schedule: Q01DX010 (ip), vehicle: saline
[3] = dose: 62.5 mg/kg/injection, schedule: Q01DX010 (ip), vehicle: saline
[4] = dose: 125.0 mg/kg/injection, schedule: Q01DX010 (ip), vehicle: saline
[5] = dose: 250.0 mg/kg/injection, schedule: Q01DX010 (ip), vehicle: saline
[6] = dose: 500.0 mg/kg/injection, schedule: Q01DX010 (ip), vehicle: saline
[7] = dose: 50.0 mg/kg/injection, schedule: Q01DX010 (ip), vehicle: saline
[8] = dose: 100.0 mg/kg/injection, schedule: Q01DX010 (ip), vehicle: saline
[9] = dose: 12.5 mg/kg/injection, schedule: Q01DX010 (ip), vehicle: saline
[10] = dose: 25.0 mg/kg/injection, schedule: Q01DX010 (ip), vehicle: saline

In the case of CN(C)[C@@H]1C(=O)C(C(N)=O)=C(O)[C@@]2(O)C(=O)C3=C(O)c4c(O)cccc4C[C@H]3C[C@@H]12, the T/C (dose: 15.0 mg/kg/injection, schedule: Q01DX015 (ip), vehicle: alkali diluted with saline) is reported as 93 % of control and the T/C (dose: 30.0 mg/kg/injection, schedule: Q01DX015 (ip), vehicle: alkali diluted with saline) is reported as 89 % of control.
Nc1nc(=S)c2ncn(C3OC(CO)C(O)C3O)c2[nH]1 (configuration not stated) was tested, and the T/C [1] was 92 % of control and the T/C [2] was 89 % of control.
For CC(=O)N(C)C, the T/C [3] was 86 % of control and 105 % of control and 121 % of control, the T/C [4] was 95 % of control and 100 % of control and 112 % of control and the T/C [5] was 95 % of control and 105 % of control. For the same compound, the T/C [6] was 95 % of control and 100 % of control and 115 % of control.
For COc1ccccc1CNCCO, the T/C [7] was 103 % of control, the T/C [8] was 103 % of control and the T/C (dose: 200.0 mg/kg/injection, schedule: Q01DX010 (ip), vehicle: saline) was 93 % of control.
For CC(C)CNS(=O)(=O)c1ncnc2nc[nH]c12, the T/C (dose: 18.8 mg/kg/injection, schedule: Q01DX015 (ip), vehicle: carboxymethylcellulose (CMC)) was 114 % of control, the T/C (dose: 37.5 mg/kg/injection, schedule: Q01DX015 (ip), vehicle: carboxymethylcellulose (CMC)) was 99 % of control and the T/C (dose: 75.0 mg/kg/injection, schedule: Q01DX015 (ip), vehicle: carboxymethylcellulose (CMC)) was 96 % of control.
In the case of COc1cc(-c2ccc(Nc3ccccc3C(=O)O)c(OC)c2)ccc1N, the T/C (dose: 20.0 mg/kg/injection, schedule: Q01DX010 (ip), vehicle: saline) is reported as 92 % of control and 100 % of control, the T/C (dose: 40.0 mg/kg/injection, schedule: Q01DX010 (ip), vehicle: saline) is reported as 100 % of control and the T/C (dose: 80.0 mg/kg/injection, schedule: Q01DX010 (ip), vehicle: saline) is reported as 92 % of control and 120 % of control.
In the case of Oc1cc(CN(CCCl)CCCl)c(O)cc1CN(CCCl)CCCl, the T/C (dose: 0.63 mg/kg/injection, schedule: Q01DX010 (ip), vehicle: saline) is reported as 104 % of control and 107 % of control, the T/C (dose: 1.25 mg/kg/injection, schedule: Q01DX010 (ip), vehicle: saline) is reported as 104 % of control and the T/C (dose: 5.0 mg/kg/injection, schedule: Q01DX010 (ip), vehicle: saline) is reported as 103 % of control and 120 % of control.
For O=c1cn[nH]c(=O)[nH]1, the T/C [3] was 95 % of control and 100 % of control and 109 % of control, the T/C [4] was 91 % of control and 95 % of control and 110 % of control and the T/C [5] was 90 % of control and 93 % of control and 115 % of control. For the same compound, the T/C [6] was 100 % of control (2×) and 106 % of control.
With CC(CCC(C)OS(C)(=O)=O)OS(C)(=O)=O (configuration not stated) the T/C (dose: 2.0 mg/kg/injection, schedule: Q01DX010 (ip), vehicle: saline) was 92 % of control and 100 % of control, the T/C [1] was 103 % of control and 104 % of control and the T/C [2] was 103 % of control and 104 % of control. For the same compound, the T/C (dose: 16.0 mg/kg/injection, schedule: Q01DX010 (ip), vehicle: saline) was 100 % of control and 116 % of control.
For O=NN(CCCl)C(=O)NCCCl, the T/C (dose: 2.64 mg/kg/injection, schedule: Q01DX015 (ip), vehicle: saline) was 90 % of control.
For CS(=O)(=O)OCCCCOS(C)(=O)=O, the T/C (dose: 6.25 mg/kg/injection, schedule: Q01DX010 (ip), vehicle: saline) was 100 % of control, the T/C [9] was 105 % of control and the T/C [10] was 100 % of control. For the same compound, the T/C [7] was 105 % of control.
COc1ccc(C[n+]2cc([O-])on2)cc1 was tested, and the T/C (dose: 12.5 mg/kg/injection, schedule: Q01DX015 (ip), vehicle: carboxymethylcellulose (CMC)) was 99 % of control, the T/C (dose: 25.0 mg/kg/injection, schedule: Q01DX015 (ip), vehicle: carboxymethylcellulose (CMC)) was 106 % of control and the T/C (dose: 50.0 mg/kg/injection, schedule: Q01DX015 (ip), vehicle: carboxymethylcellulose (CMC)) was 100 % of control. The T/C (dose: 100.0 mg/kg/injection, schedule: Q01DX015 (ip), vehicle: carboxymethylcellulose (CMC)) was 113 % of control.
With N=[N+]=CC(=O)OCC(N)C(=O)O (configuration not stated) the T/C (dose: 3.13 mg/kg/injection, schedule: Q01DX010 (ip), vehicle: saline) was 116 % of control, the T/C [9] was 150 % of control and the T/C [10] was 87 % of control and 91 % of control.
In the case of CCN(CC)CCNc1ccc(C)c2sc3ccccc3c(=O)c12, the T/C [7] is reported as 122 % of control and the T/C [8] is reported as 109 % of control.
